According to patent publication US8741836B2, “Polypeptides” (Novo Nordisk A/S, priority 2011, dated 2014):
Starred links: 1 amine or outer side, 2 acyl side, 3 side chain; linkers in the order of their positions; H or OH if unused. Positions of bridges follow the written chain, without caps; N, C: chain ends. Residues, ends and D or L forms follow the SMILES beside them. *: point of attachment. C20 diacid = O=C(O)CCCCCCCCCCCCCCCCCCC(=O)*; γGlu = O=C(O)[C@H](CCC(=O)[*:2])N[*:1]

Test: Assay (III) ThT fibrillation assay for physical stability
Type: physicochemical
Settings: for ThT pH 4.0 lag time: pH 4.0, ThT fibrillation assay
Outline: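 Freshly prepared, pH-adjusted formulations with 1 μM ThT incubated at 37 °C under 960 rpm orbital shaking (1 mm), fluorescence (ex 444, em 485 nm) read every 20 min. […] Peptide content before and after measured by reverse-phase HPLC against pramlintide standard.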

**Q.** For `CC[C@H](C)[C@H](NC(=O)[C@@H]1CCCN1C(=O)CNC(=O)[C@H](Cc1ccccc1)NC(=O)[C@H](CC(N)=O)NC(=O)[C@H](CC(N)=O)NC(=O)[C@H](CO)NC(=O)[C@H](CO)NC(=O)[C@H](Cc1c[nH]cn1)NC(=O)[C@H](Cc1c[nH]cn1)NC(=O)[C@H](CC(C)C)NC(=O)[C@H](Cc1ccccc1)NC(=O)[C@H](CCC(=O)O)NC(=O)[C@H](C)NC(=O)[C@H](CC(C)C)NC(=O)[C@H](CCCNC(=N)N)NC(=O)[C@H](CCC(N)=O)NC(=O)[C@@H](NC(=O)[C@H](C)NC(=O)[C@@H]1CSSC[C@H](NC(=O)[C@H](CCCCN)NC(=O)[C@H](Cc2c[nH]cn2)NC(=O)CC[C@H](NC(=O)CCCCCCCCCCCCCCCCCCC(=O)O)C(=O)O)C(=O)N[C@@H](CC(N)=O)C(=O)N[C@@H]([C@@H](C)O)C(=O)N[C@@H](C)C(=O)N[C@@H]([C@@H](C)O)C(=O)N1)[C@@H](C)O)C(=O)N[C@@H](CC(C)C)C(=O)N1CCC[C@H]1C(=O)N1CCC[C@H]1C(=O)N[C@H](C(=O)N[C@@H](CC(N)=O)C(=O)N[C@H](C(=O)NCC(=O)N[C@@H](CO)C(=O)N[C@@H](Cc1c[nH]cn1)C(=O)N[C@H](C(=O)N[C@@H](Cc1ccc(O)cc1)C(N)=O)[C@@H](C)O)C(C)C)[C@@H](C)O` [Example 66, N-alpha-[(S)-4-Carboxy-4-(19-carboxynonadecanoylamino)butyryl]-His-[Glu14,His17,His35]-pramlintide] ({C20 diacid-γGlu}-HKCNTATCATQRLAEFLHHSSNNFGPILPPTNVGSHTY-NH2; disulfide 3-8), which “ThT pH 4.0 lag time” value is on record?
**A.** The value was greater than 45 h.

**Q.** Which “ThT pH 4.0 lag time” value does the source give for `CC[C@H](C)[C@H](NC(=O)[C@@H]1CCCN1C(=O)CNC(=O)[C@H](Cc1ccccc1)NC(=O)[C@H](CC(N)=O)NC(=O)[C@H](CC(N)=O)NC(=O)[C@H](CO)NC(=O)[C@H](CO)NC(=O)[C@H](Cc1c[nH]cn1)NC(=O)[C@H](Cc1c[nH]cn1)NC(=O)[C@H](CC(C)C)NC(=O)[C@H](Cc1ccccc1)NC(=O)[C@H](CCC(=O)O)NC(=O)[C@H](C)NC(=O)[C@H](CC(C)C)NC(=O)[C@H](CCCNC(=N)N)NC(=O)[C@H](CCC(N)=O)NC(=O)[C@@H](NC(=O)[C@H](C)NC(=O)[C@@H]1CSSC[C@H](NC(=O)[C@H](Cc2c[nH]cn2)NC(=O)CC[C@H](NC(=O)CCCCCCCCCCCCCCCCCCC(=O)O)C(=O)O)C(=O)N[C@@H](CC(N)=O)C(=O)N[C@@H]([C@@H](C)O)C(=O)N[C@@H](C)C(=O)N[C@@H]([C@@H](C)O)C(=O)N1)[C@@H](C)O)C(=O)N[C@@H](CC(C)C)C(=O)N1CCC[C@H]1C(=O)N1CCC[C@H]1C(=O)N[C@H](C(=O)N[C@@H](CC(N)=O)C(=O)N[C@H](C(=O)NCC(=O)N[C@@H](CO)C(=O)N[C@@H](Cc1c[nH]cn1)C(=O)N[C@H](C(=O)N[C@@H](Cc1ccc(O)cc1)C(N)=O)[C@@H](C)O)C(C)C)[C@@H](C)O` [Example 76, N-alpha-[(S)-4-Carboxy-4-(19-carboxynonadecanoylamino)butyryl]-[His1,Glu14,His17,His35]-pramlintide] ({C20 diacid-γGlu}-HCNTATCATQRLAEFLHHSSNNFGPILPPTNVGSHTY-NH2; disulfide 2-7) here?
**A.** The value was greater than 45 h.

**Q.** What does the source list for `CC[C@H](C)[C@H](NC(=O)[C@@H]1CCCN1C(=O)CNC(=O)[C@H](Cc1ccccc1)NC(=O)[C@H](CC(N)=O)NC(=O)[C@H](CC(N)=O)NC(=O)[C@H](CO)NC(=O)[C@H](CO)NC(=O)[C@H](Cc1c[nH]cn1)NC(=O)[C@H](CCCNC(=N)N)NC(=O)[C@H](CC(C)C)NC(=O)[C@H](Cc1ccccc1)NC(=O)[C@H](CCC(=O)O)NC(=O)[C@H](C)NC(=O)[C@H](CC(C)C)NC(=O)[C@H](CCCNC(=N)N)NC(=O)[C@H](CCC(N)=O)NC(=O)[C@@H](NC(=O)[C@H](C)NC(=O)[C@@H]1CSSC[C@H](NC(=O)[C@H](CCC(=O)O)NC(=O)[C@H](CCCNC(=N)N)NC(=O)[C@H](CCC(=O)O)NC(=O)CC[C@H](NC(=O)CCCCCCCCCCCCCCCCCCC(=O)O)C(=O)O)C(=O)N[C@@H](CC(N)=O)C(=O)N[C@@H]([C@@H](C)O)C(=O)N[C@@H](C)C(=O)N[C@@H]([C@@H](C)O)C(=O)N1)[C@@H](C)O)C(=O)N[C@@H](CC(C)C)C(=O)N1CCC[C@H]1C(=O)N1CCC[C@H]1C(=O)N[C@H](C(=O)N[C@@H](CC(N)=O)C(=O)N[C@H](C(=O)NCC(=O)N[C@@H](CO)C(=O)N[C@@H](CC(N)=O)C(=O)N[C@H](C(=O)N1CCC[C@H]1C(N)=O)[C@@H](C)O)C(C)C)[C@@H](C)O` [Example 124, N-alpha-[(S)-4-Carboxy-4-(19-carboxynonadecanoylamino)butyryl]-Glu-Arg-[Glu1,Glu14,Arg17,Pro37]-pramlintide] ({C20 diacid-γGlu}-ERECNTATCATQRLAEFLRHSSNNFGPILPPTNVGSNTP-NH2; disulfide 4-9 (inferred); C-terminus assumed)?
**A.** ThT pH 4.0 lag time (physical stability in fibrillogenesis assay): >45 h; ThT pH 4.0 lag time: >45 h

**Q.** With `CC[C@H](C)[C@H](NC(=O)[C@@H]1CCCN1C(=O)CNC(=O)[C@H](Cc1ccccc1)NC(=O)[C@H](CC(N)=O)NC(=O)[C@H](CC(N)=O)NC(=O)[C@H](CO)NC(=O)[C@H](CO)NC(=O)[C@H](Cc1c[nH]cn1)NC(=O)[C@H](CCCNC(=N)N)NC(=O)[C@H](CC(C)C)NC(=O)[C@H](Cc1ccccc1)NC(=O)[C@H](CCC(=O)O)NC(=O)[C@H](C)NC(=O)[C@H](CC(C)C)NC(=O)[C@H](CCCNC(=N)N)NC(=O)[C@H](CCC(N)=O)NC(=O)[C@@H](NC(=O)[C@H](C)NC(=O)[C@@H]1CSSC[C@H](NC(=O)[C@H](CCCCN)NC(=O)[C@H](CCC(=O)O)NC(=O)CC[C@H](NC(=O)CCCCCCCCCCCCCCCCCCC(=O)O)C(=O)O)C(=O)N[C@@H](CC(N)=O)C(=O)N[C@@H]([C@@H](C)O)C(=O)N[C@@H](C)C(=O)N[C@@H]([C@@H](C)O)C(=O)N1)[C@@H](C)O)C(=O)N[C@@H](CC(C)C)C(=O)N1CCC[C@H]1C(=O)N1CCC[C@H]1C(=O)N[C@H](C(=O)N[C@@H](CC(N)=O)C(=O)N[C@H](C(=O)NCC(=O)N[C@@H](CO)C(=O)N[C@@H](Cc1c[nH]cn1)C(=O)N[C@H](C(=O)N[C@@H](Cc1ccc(O)cc1)C(N)=O)[C@@H](C)O)C(C)C)[C@@H](C)O` [Example 58, N-alpha-[(S)-4-Carboxy-4-(19-carboxynonadecanoylamino)butyryl]-Glu-[Glu14,Arg17,His35]-pramlintide] ({C20 diacid-γGlu}-EKCNTATCATQRLAEFLRHSSNNFGPILPPTNVGSHTY-NH2; disulfide 3-8 (inferred); C-terminus assumed) as the molecule, how does the “ThT pH 4.0 lag time (physical stability in fibrillogenesis assay)” value read?
**A.** The value was greater than 45 h.

**Q.** And the “ThT pH 4.0 lag time” value?
**A.** Its value is greater than 45 h.

**Q.** Which “ThT pH 4.0 lag time” value does the source give for `CC[C@H](C)[C@H](NC(=O)[C@@H]1CCCN1C(=O)CNC(=O)[C@H](Cc1ccccc1)NC(=O)[C@H](CC(N)=O)NC(=O)[C@H](CC(N)=O)NC(=O)[C@H](CO)NC(=O)[C@H](CO)NC(=O)[C@H](Cc1c[nH]cn1)NC(=O)[C@H](Cc1c[nH]cn1)NC(=O)[C@H](CC(C)C)NC(=O)[C@H](Cc1ccccc1)NC(=O)[C@H](CCC(=O)O)NC(=O)[C@H](C)NC(=O)[C@H](CC(C)C)NC(=O)[C@H](CCCNC(=N)N)NC(=O)[C@H](CCC(N)=O)NC(=O)[C@@H](NC(=O)[C@H](C)NC(=O)[C@@H]1CSSC[C@H](NC(=O)[C@H](Cc2c[nH]cn2)NC(=O)[C@H](Cc2c[nH]cn2)NC(=O)[C@H](Cc2c[nH]cn2)NC(=O)CC[C@H](NC(=O)CCCCCCCCCCCCCCCCCCC(=O)O)C(=O)O)C(=O)N[C@@H](Cc2c[nH]cn2)C(=O)N[C@@H]([C@@H](C)O)C(=O)N[C@@H](C)C(=O)N[C@@H]([C@@H](C)O)C(=O)N1)[C@@H](C)O)C(=O)N[C@@H](CC(C)C)C(=O)N1CCC[C@H]1C(=O)N1CCC[C@H]1C(=O)N[C@H](C(=O)N[C@@H](CC(N)=O)C(=O)N[C@H](C(=O)NCC(=O)N[C@@H](CO)C(=O)N[C@@H](Cc1c[nH]cn1)C(=O)N[C@H](C(=O)N[C@@H](Cc1ccc(O)cc1)C(N)=O)[C@@H](C)O)C(C)C)[C@@H](C)O` [Example 32, N-alpha-[(S)-4-Carboxy-4-(19-carboxynonadecanoylamino)butyryl]-His-His-[His1,His3,Glu14,His17,His35]-pramlintide] ({C20 diacid-γGlu}-HHHCHTATCATQRLAEFLHHSSNNFGPILPPTNVGSHTY-NH2; disulfide 4-9) here?
**A.** The value was greater than 45 h.

**Q.** Which “ThT pH 4.0 lag time” value does the source give for `CC[C@H](C)[C@H](NC(=O)[C@@H]1CCCN1C(=O)CNC(=O)[C@H](Cc1ccccc1)NC(=O)[C@H](CC(N)=O)NC(=O)[C@H](CC(N)=O)NC(=O)[C@H](CO)NC(=O)[C@H](CO)NC(=O)[C@H](Cc1c[nH]cn1)NC(=O)[C@H](Cc1c[nH]cn1)NC(=O)[C@H](CC(C)C)NC(=O)[C@H](Cc1ccccc1)NC(=O)[C@H](CCC(=O)O)NC(=O)[C@H](C)NC(=O)[C@H](CC(C)C)NC(=O)[C@H](CCCNC(=N)N)NC(=O)[C@H](CCC(N)=O)NC(=O)[C@@H](NC(=O)[C@H](C)NC(=O)[C@@H]1CSSC[C@H](NC(=O)CNC(=O)CC[C@H](NC(=O)CCCCCCCCCCCCCCCCCCC(=O)O)C(=O)O)C(=O)N[C@@H](CC(N)=O)C(=O)N[C@@H]([C@@H](C)O)C(=O)N[C@@H](C)C(=O)N[C@@H]([C@@H](C)O)C(=O)N1)[C@@H](C)O)C(=O)N[C@@H](CC(C)C)C(=O)N1CCC[C@H]1C(=O)N1CCC[C@H]1C(=O)N[C@H](C(=O)N[C@@H](CC(N)=O)C(=O)N[C@H](C(=O)NCC(=O)N[C@@H](CO)C(=O)N[C@@H](Cc1c[nH]cn1)C(=O)N[C@H](C(=O)N[C@@H](Cc1ccc(O)cc1)C(N)=O)[C@@H](C)O)C(C)C)[C@@H](C)O` [Example 105, N-alpha-[(S)-4-Carboxy-4-(19-carboxynonadecanoylamino)butyryl]-[Gly1,Glu14,His17,His35]-pramlintide] ({C20 diacid-γGlu}-GCNTATCATQRLAEFLHHSSNNFGPILPPTNVGSHTY-NH2; disulfide 2-7) here?
**A.** The value was 26 h.
